Data: patent US8975259B2, “Compositions and methods for inhibiting G protein signaling” (University of Rochester, priority 2007, dated 2015)
Read-outs that look alike come from different tables or passages of the source.

Assays:
PLCβ2 = assay: Gβ1γ2-dependent activation of purified PLCβ2; type: biochemical
Method: Purified PLCβ2 (0.25 ng) was assayed in the presence (▴) or absence (▪) of 100 nM purified Gβ1γ2. […] Assays contained 10 ng of purified p101/p110 PI3Kγ heterodimer with or without 100 nM purified Gβ1γ2. Left panel: (▴) 100 nM Gβ1γ2 or (▪) no βγ. […] M119 or M201 and 25 nM purified GRK2 were added simultaneously to 250 nM biotinylated Gβ1γ2 (bGβ1γ2) immobilized on streptavidin agarose. GRK2 was detected with antibody to GRK2. Data are representative (mean ±SEM, except D) repeated at least three times each. […] 30 nM bGβ1γ2 was incubated with either 30 nM PLCβ2 or PLCβ3 in the presence or absence of M119 or M201 for 16 h at 4° C. before precipitation with avidin agarose and detection with PLCβ2,or Gβ antibodies. […] Same as 4E with PLCβ3.
The ability of NSC119910 analogs to selectively modulate activation PLC-β2 and -β3 was analyzed. In this assay, PLC-β2 and PLC-β3 were purified and PLC enzymatic activity was measured in the presence or absence of purified βy and in the presence or absence of analog.
Nevertheless, M119 and M201 were tested in in vitro reconstitution assays of Gβγ-dependent activation of PLCβ2, PLCβ3 and PI3Kγ and binding to GRK2. […] These are only two of multiple diverse compounds identified, indicating potential for multiple modes of Gβγ-dependent target modulation by these small molecules.

Gβγ-GRK2 interaction = target: T1, Gβγ-GRK2 interaction (UniProt P54311+P63212); assay: GRK2 binding to biotinylated Gβ1γ2 on streptavidin agarose
T1 construct: made in house; host or cells: bGβ1γ2: Sf9 insect cells
T1 sequence (P54311 whole entry): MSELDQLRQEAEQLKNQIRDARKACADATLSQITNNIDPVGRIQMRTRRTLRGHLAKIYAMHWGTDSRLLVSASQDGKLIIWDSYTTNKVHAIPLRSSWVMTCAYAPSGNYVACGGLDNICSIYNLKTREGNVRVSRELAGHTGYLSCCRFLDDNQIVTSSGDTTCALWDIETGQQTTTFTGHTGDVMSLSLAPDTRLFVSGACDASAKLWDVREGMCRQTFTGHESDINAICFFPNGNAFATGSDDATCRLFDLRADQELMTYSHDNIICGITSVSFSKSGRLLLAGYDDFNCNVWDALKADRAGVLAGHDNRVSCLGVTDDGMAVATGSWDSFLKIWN
T1 sequence (P63212 2-68 limits assumed): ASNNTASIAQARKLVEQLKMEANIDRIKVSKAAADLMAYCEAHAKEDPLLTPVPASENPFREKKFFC

[1] = system: GFP-PHAkt translocation (PI3Kγ activation) in HL60 cells; assay: fMLP-dependent GFP-PH-Akt translocation in differentiated HL60 cells; type: cell-based, human; conditions: 10 μM compound; result in words
Gβ1γ2 = Gβ1γ2 (UniProt P54311+P63212); assay: Surface plasmon resonance direct binding to Gβ1γ2; parameters: made in house; host or cells: Sf9 insect cells (baculovirus); conditions: for kon: read-out: association rate constant (kon, ka); for koff: read-out: dissociation rate constant (koff, kd)
Sequence of Gβ1γ2 (P54311 whole entry): as the sequence (P54311 whole entry) above
Sequence of Gβ1γ2 (P63212 2-68 limits assumed): as the sequence (P63212 2-68 limits assumed) above
Text: To understand the protein binding characteristics of compounds a surface plasmon resonance (SPR) method was developed for monitoring direct small molecule binding to G βγ subunits using a Reichert SPR instrument. In addition to binding affinity, binding kinetics can be obtained from this analysis. […] To obtain the data in herein, 3000 refractive index units (RIU) of Gβ1γ2 was immobilized to maximize detection of small molecule binding (Karlsson et al., 2006; Markgren et al., 2001; Rich et al., 2001) and compounds were injected at 75 μl/min and changes in bulk refractive index were accounted for in a reference flow cell. […] This method is used to analyze compound binding kinetics and calculate equilibrium binding constants to test the mechanisms of action and selectivity of various “hot spot” binding compounds.
Direct binding of “hot spot” binding small molecules was assessed using the Reichert SR7000 Surface Plasmon Resonance dual chamber instrument equipped with an autosampler (Reichert, Depew, N.Y.). To activate the sensor chip surface, a mixture of 0.1 M 1-ethyl-3-(3-dimethylaminopropyl) carbodiimide hydrochloride and 0.05 M N-hydroxysuccinimide was injected (flow rate 5 μl/min) over the sensor surface. Streptavidin (100 μg/ml; prepared in 20 mM sodium acetate buffer, pH 5.5) was coupled to the sensor chip surface followed by quenching the remaining activated carboxyl groups with 1 M ethanolamine, pH 8.5. bGβ1γ2 was conjugated to the streptavidin-coated chip in running buffer (50 mM HEPES, pH 7.6, 1 mM EDTA, 100 mM NaCl, 0.1% C12E10, and 1 mM dithiothreitol) to achieve 2000 micro-refractive index units. A second reference cell was treated similarly, but bGβ1γ2 was excluded. Direct binding of small molecules was tested out at room temperature with a flow rate of 75 μl/min. Compounds were prepared in running buffer and injected for 10 min followed by a dissociation phase of 10 min. The obtained sensorgrams were corrected for nonspecific background by running the same experiment in series over an identical sensor surface with immobilized streptavidin, blocked with biotin, without bGβγ. […] Best fit kinetic parameters were determined using kinetic titration model and ClampXP ver. 3.5, which accounts for incomplete dissociation between injections (Karisson et al., 2006).

[2] = system: differentiated HL60 cells; assay: Chemokinesis (fMLP in upper and lower Boyden chambers); type: cell-based, human; conditions: fMLP in both chambers; result in words
Method: Same as A with purified human neutrophils.
Chemotaxis was assayed using a Boyden chamber (Neuro Probe, Gaithersburg, Md.) using 3-μm polyvinylpyrrolidone-free polycarbonate filters (Neuro Probe). HL60 cells (differentiated for 4 days) were washed with and resuspended in HBSS containing 1% bovine serum albumin to a final concentration of 1×10^6 cells/ml. Primary human neutrophils were washed and resuspended in NaCl buffer (140 mM NaCl, 4 mM KCl, 10 mM D-glucose, 10 mM HEPES, pH 7.4, 1 mM MgCl2, and 1 mM CaCl2) to a final concentration of 1×10^6 cells/mi. Chemoattractant [1 μM granulocyte-macrophage-colony stimulating factor (GM-CSF), 10 nM IL-8, or 250 nM fMLP; Sigma Aldrich] was added to the bottom chamber in HBSS containing 1% bovine serum albumin. Cell suspensions (0.2×10^6 cells/well) were added to the top wells of the Boyden chamber and allowed to migrate for 1 h at 37° C. […] Chemotactic HL60 cells were scored by counting three microscope fields and subtracting the number of cells from fMLP wells as background. […] For all the small molecules, effects of the compounds on chemokinesis was analyzed by measuring chemotaxis in the presence of 250 nM fMLP in both the upper and lower chambers of the Boyden Chamber and measuring changes in transwell migration. […]

SMILES: O=C(O)C1CCCCC1c1c2ccc(=O)cc-2oc2cc(O)ccc12 (centres unmarked) [Compound M119B]
- effect on Gβ1γ2-dependent activation of PLCβ2 (PLCβ2; result in words): did not have effects
- effect on GRK2 binding to bGβ1γ2 (Gβγ-GRK2 interaction; result in words): did not have effects

SMILES: O=C(O)C1CCCCC1c1c2ccc(=O)c(O)c-2oc2c(O)c(O)ccc12 (centres unmarked) [Compound M119, cyclohexanecarboxylic acid, 2-(4,5,6-trihydroxy-3-oxo-3H-xanthen-9-yl)-(9cl)]
- effect on fMLP-dependent translocation of GFP-PHAkt to the membrane [1]: inhibited
- Kd (Gβ1γ2): 100 nM
- kon (Gβ1γ2; SPR): 2000 M⁻¹ s⁻¹
- koff (Gβ1γ2; SPR): 0.0002 s⁻¹
- effect on chemokinesis [2]: Neither M119 nor gallein had any effects
- IC50 (PLCβ2; read-out: IC50 for attenuation of Gβ1γ2-dependent activation of PLCβ2): 3000 nM
- IC50 (Gβγ-GRK2 interaction): ~5000 nM

SMILES: O=C(O)c1ccccc1-c1c2ccc(=O)c(O)c-2oc2c(O)c(O)ccc12 (racemic) [Gallein]
- effect on fMLP-dependent translocation of GFP-PHAkt to the membrane [1]: inhibited
- Kd (Gβ1γ2; SPR, read-out: Kd): ~400 nM
- kon (Gβ1γ2; SPR): 1130 ± 17 M⁻¹ s⁻¹
- koff (Gβ1γ2; SPR): 0.00043 s⁻¹
- effect on chemokinesis [2]: Neither M119 nor gallein had any effects
